From article PMC10528180 (Foods, 2023)

Columns and labels:
db/db mice = assay: Postprandial blood glucose level measurement after oral starch load; assay type: in vivo; settings: for glucose AUC / reduction of glucose AUC of diabetic mice: oral starch 2 g/kg; for reduction of glucose AUC of diabetic mice: vs model
Experimental: db/db mice and C57BL/6J mice were purchased f0rom Beijing Zhishan Health Medical Research Institute. The animal testing procedure was approved by Beijing Huayuan Times Technology Co., Ltd Ethics Committee on the Management and Welfare of Laboratory Animals. (Ethics review batch number: HYSD2023-04) and strictly follows the local and national codes of ethics. All mice were placed in a control chamber at 25 °C and 60% relative humidity with a light/dark period of 12/12 h. During this period, all mice had free access to normal feed and water. […] All mice were given starch (2 g/kg) orally 60 min after treatment. Blood samples were taken from the caudal vein and blood glucose was measured after 0, 30, 60, and 120 min. The area under the curve (AUC) was calculated using the trapezoidal rule.

α-glucosidase [1] = biological target: T1, α-glucosidase (Saccharomyces cerevisiae, UniProt P53341); assay: biochemical
T1 construct: purchased Sigma-Aldrich Co
T1 sequence (P53341 whole entry): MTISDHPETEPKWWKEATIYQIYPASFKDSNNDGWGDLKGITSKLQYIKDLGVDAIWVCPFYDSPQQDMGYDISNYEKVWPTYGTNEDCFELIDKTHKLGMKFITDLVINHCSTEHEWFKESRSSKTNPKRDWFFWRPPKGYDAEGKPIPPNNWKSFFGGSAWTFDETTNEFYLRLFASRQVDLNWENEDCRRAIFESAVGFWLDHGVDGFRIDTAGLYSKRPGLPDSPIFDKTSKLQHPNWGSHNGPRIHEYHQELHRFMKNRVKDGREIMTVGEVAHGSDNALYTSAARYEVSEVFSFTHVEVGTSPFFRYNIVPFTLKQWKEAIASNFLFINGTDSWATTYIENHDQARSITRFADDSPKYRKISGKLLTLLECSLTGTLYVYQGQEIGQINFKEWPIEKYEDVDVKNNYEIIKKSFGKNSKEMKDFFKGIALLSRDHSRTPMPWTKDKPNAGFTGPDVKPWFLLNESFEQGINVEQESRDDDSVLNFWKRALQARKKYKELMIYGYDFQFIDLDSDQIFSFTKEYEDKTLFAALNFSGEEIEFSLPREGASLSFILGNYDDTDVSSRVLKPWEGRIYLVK
Experimental: (§1) The other reagents used in this experiment are analytically pure reagents purchased from Sigma-Aldrich Co. (St. Louis, MI, USA) unless specified otherwise.
The in vitro α-glucosidase activity assay was determined using spectrophotometry, as previously reported, with only minor modifications. In phosphate buffer with a pH of 6.8, 0.5 U/mL of α-glucosidase and the appropriate quantity of p-nitrophenyl-D-glucopyranoside (pNGP) were produced. […] Gradient dilution with a phosphate-buffered solution was used to create sample solutions of various concentrations. First, different concentrations of compound (10 μL), an enzyme solution (40 μL), and potassium phosphate buffer (100 μL) were pre-incubated in 96-well plates at 37 °C for 10 min.
(§2) The enzymatic inhibitory activity of the tested compounds was calculated using the following formula: Inhibition %=[(Abs control−Abs sample)/Abs control]×100
(§3) The IC50 values of the tested compounds were calculated using nonlinear fitting (logit method).

α-glucosidase [2] = biological target: T1, α-glucosidase; assay: Inhibition kinetic analysis (Lineweaver-Burk) on α-glucosidase; assay type: biochemical
Experimental: The reactions of a series of compounds with substrates pNαPG and G3-CNP were tested using the Lineweaver–Burk expression in Equation (1) to calculate the maximum velocity (Vmax) and Michaelis–Menten constant (Km) values. (1) 1/v=Km/Vmax1/[S]+1/Vmax, where Vmax and Km are the maximum velocity of the enzyme and the Michaelis–Menten constant without inhibitor, respectively. [S] is the concentrations of the substrate and inhibitor.

α-amylase = biological target: T2, α-amylase (Sus scrofa, UniProt P00690); assay: In vitro α-amylase activity assay (G3-CNP, absorbance 405 nm); assay type: biochemical, porcine
T2 construct: α-amylase (EC 232-565-6, powder, ≥5 units/mg solid) isolated from porcine pancreas; purchased Sigma-Aldrich Co; host or cells: porcine pancreas
T2 sequence (P00690 16-511): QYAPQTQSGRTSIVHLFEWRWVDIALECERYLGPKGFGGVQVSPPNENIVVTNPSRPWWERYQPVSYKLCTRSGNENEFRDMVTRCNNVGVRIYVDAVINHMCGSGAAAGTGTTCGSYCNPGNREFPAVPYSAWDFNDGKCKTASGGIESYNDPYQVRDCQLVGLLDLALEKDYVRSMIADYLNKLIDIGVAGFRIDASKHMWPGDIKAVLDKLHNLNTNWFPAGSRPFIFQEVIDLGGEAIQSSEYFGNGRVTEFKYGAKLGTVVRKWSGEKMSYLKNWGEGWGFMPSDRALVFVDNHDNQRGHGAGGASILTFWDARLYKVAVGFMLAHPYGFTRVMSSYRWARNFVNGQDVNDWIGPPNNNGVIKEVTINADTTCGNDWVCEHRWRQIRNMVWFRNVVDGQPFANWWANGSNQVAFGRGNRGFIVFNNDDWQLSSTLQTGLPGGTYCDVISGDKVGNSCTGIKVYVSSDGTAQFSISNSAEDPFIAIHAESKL
Experimental: as §1
The in vitro […] activity assay was determined using spectrophotometry, as previously reported, with only minor modifications. A total of 5 U/mL of α-amylase and the appropriate quantity of 2-chloro-4-nitrophenyl α-D-maltotrioside (G3-CNP) were produced. […] Gradient dilution with a phosphate-buffered solution was used to create sample solutions of various concentrations. First, different concentrations of compound (10 μL), an enzyme solution (40 μL), and potassium phosphate buffer (100 μL) were pre-incubated in 96-well plates at 37 °C for 10 min.
as §2, §3

## O=c1c(O)c(-c2ccc(O)c(O)c2)oc2cc(O[C@@H]3O[C@H](CO)[C@@H](O)[C@H](O)[C@H]3O)cc(O)c12 [Quercimeritrin]
db/db mice; 100 mg/kg
  glucose AUC: 43.7 mmol·h/L
  reduction of glucose AUC of diabetic mice: 19.0%
db/db mice; 200 mg/kg
  glucose AUC: 40.7 mmol·h/L
  reduction of glucose AUC of diabetic mice: 24.5%
db/db mice; HD group 200 mg/kg, oral starch
  postprandial blood glucose level: significantly lower than that of the control and acarbose groups
α-glucosidase [1]
  IC50: 79.9 µM
α-glucosidase [1]; read-out: α-Glucosidase inhibition
  inhibition at 500 µM: 92%
α-glucosidase [2]; Lineweaver-Burk diagram
  inhibition mode on α-glucosidase: competitive inhibition
α-glucosidase [2]; [I] 15.6 μM
  Vmax α-glucosidase: 0.2151
α-glucosidase [2]; [I] 31.3 μM
  Vmax α-glucosidase: 0.2028
α-glucosidase [2]; [I] 62.5 μM
  Vmax α-glucosidase: 0.2000
α-glucosidase [2]; [I] 125 μM
  Vmax α-glucosidase: 0.1916
α-glucosidase [2]; [I] 250 μM
  Vmax α-glucosidase: 0.1890
α-glucosidase [2]; [I] 500 μM
  Vmax α-glucosidase: 0.1761
α-amylase
  IC50: > 250 µM
α-amylase; at 500 µM, read-out: α-Amylase inhibition
  inhibition at 500 µM: 57%
